Test results reported in patent US20050153894A1, “p21 peptides” (Cyclacel Limited, priority 1999, published 2005).
Square brackets hold non-standard residues; d marks the D form. Phe(4-F) = N[C@@H](Cc1ccc(F)cc1)C(=O)O; Cit = NC(=O)NCCC[C@H](N)C(=O)O; dPsa = O-acetyl-D-phenylserine; Psa = O-acetylphenylserine; Abu = CC[C@H](N)C(=O)O

Tests used:
Type in all cases: biochemical
CDK2/cyclin A = CDK2/cyclin A (Homo sapiens, UniProt P20248); assay: CDK2/cyclin A kinase assay, substrate pRb(773-928); conditions: for Relative activity Kinase Inhibition: pRb substrate, [ATP] = 100 μM
Excerpt: Reactions were stopped on ice, followed by filtration through p81 filterplates (Whatman Polyfiltronics, Kent, UK).

CDK2/Cyclin E = biological target: T1, CDK2/Cyclin E (Homo sapiens, UniProt P24864); assay: CDK2/Cyclin E kinase assay, phosphorylation of GST-Rb; conditions: GST-pRb substrate, [ATP] = 100 μM
T1 construct: 6xHis; made in house; host or cells: Sf9 insect cells (baculovirus co-expression)
Experimental: (§1) The phosphorylation reaction mixture (total volume 40 μl) consisted of 50 mM HEPES pH 7.4, 20 mM MgCl2, 5 mM EGTA, 2 mM DTT, 20 mM β-glycerophosphate, 2 mM NaF, 1 mM Na3VO4, Protease Inhibitors Cocktail (Sigma, see above), BSA 0.5 mg/ml, 1 μg purified enzyme complex, 10 μl of GST-Rb-Sepharose beads, 100 μM ATP, 0.2 μCi ^32P-ATP. The reaction was carried out for 30 min at 30° C. at constant shaking. At the end of this period 100 μl of 50 mM HEPES, pH 7.4 and 1 mM ATP were added to each well and the total volume was transferred onto GFC filtered plate. The plate was washed 5 times with 200 μl of 50 mM HEPES, pH 7.4 and 1 mM ATP. To each well were added 50 μl scintillant liquid and the radioactivity of the samples was measured on Scintilation counter (Topcount, HP). The IC50 values of different peptides were calculated using GraFit software.

CDK4/Cyclin D1 = biological target: T2, CDK4/Cyclin D1 (Homo sapiens, UniProt P24385); assay: CDK4/Cyclin D1 kinase assay, phosphorylation of GST-Rb; conditions: GST-pRb substrate, [ATP] = 100 μM
T2 construct: made in house; host or cells: CDK4: Sf9 insect cells (baculovirus)
Experimental: as §1
Peptides were synthesized as described above. Cyclin D1 was expressed in E coli BL21(DE3) using PET expression vector and purified from the inclusion bodies. After refolding Cyclin D1 was cross-linked on SulfoLink agarose support (PIERCE). CDK4-6×His was expressed in Sf9 insect cells infected with the appropriate baculovirus construct and purified by metal-affinity chromatography (Quiagen). […] CDK4/Cyclin D1 phosphorilation of Rb was determined by incorporation of radio-labeled phosphate in GST-Rb in 96-well format kinase assay. […] The reaction was carried out for 30 min at 30 C at constant shaking. The GST-Rb-Sepharose beads were washed with 50 mM HEPES and 1 mM ATP and the radioactivity was measured on Scintillation counter (Topcount, HP)

[1] = relative to H-His-Ala-Lys-Arg-Arg-Leu-Ile-Phe-NH2 (SEQ ID No. 36) = 1, CDK2/cyclin A kinase assay
[2] = multiple substitutions (Example 22), relative to SEQ ID No. 36 = 1, CDK2/cyclin A kinase assay
[3] = Arg156 substitutions, relative to H-His-Ala-Lys-Arg-Arg-Leu-Ile-Phe-NH2 (=1)

T2 sequence (P24385 whole entry): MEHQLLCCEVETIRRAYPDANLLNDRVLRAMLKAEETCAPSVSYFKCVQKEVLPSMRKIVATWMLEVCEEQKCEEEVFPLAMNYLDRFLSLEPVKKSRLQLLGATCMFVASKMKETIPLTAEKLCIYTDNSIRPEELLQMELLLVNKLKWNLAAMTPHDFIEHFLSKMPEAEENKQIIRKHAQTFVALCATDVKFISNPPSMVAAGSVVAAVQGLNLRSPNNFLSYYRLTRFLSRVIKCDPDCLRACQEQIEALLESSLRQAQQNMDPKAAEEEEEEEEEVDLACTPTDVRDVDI
T2 sequence (P11802 whole entry partner): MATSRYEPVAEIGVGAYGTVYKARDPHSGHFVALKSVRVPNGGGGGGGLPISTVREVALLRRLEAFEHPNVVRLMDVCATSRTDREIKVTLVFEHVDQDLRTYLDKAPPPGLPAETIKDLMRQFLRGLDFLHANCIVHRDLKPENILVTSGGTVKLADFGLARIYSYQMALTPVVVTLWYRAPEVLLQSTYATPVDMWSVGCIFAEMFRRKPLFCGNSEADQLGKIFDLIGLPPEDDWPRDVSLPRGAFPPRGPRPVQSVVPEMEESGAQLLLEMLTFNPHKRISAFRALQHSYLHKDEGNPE

Row | Substance | Relative activity Kinase Inhibition (CDK2/cyclin A; [2]) | Kinase Inhibition Cyclin E/CDK2 % Inhibition (CDK2/Cyclin E) [%] | Kinase Inhibition Cyclin E/CDK2 IC30 (CDK2/Cyclin E) [µM] | further results
1 | 114 (H-HAKRRLI[Psa]-OH) [compound 114] | – | – | – | Relative activity Kinase Inhibition (CDK2/cyclin A; [1]): 22
2 | 115 (H-HAKRRLI[dPsa]-OH) [compound 115] | – | – | – | Relative activity Kinase Inhibition (CDK2/cyclin A; [1]): <0.1
3 | 116 (H-HSKRRLI[Psa]-OH) [compound 116] | – | – | – | Relative activity Kinase Inhibition (CDK2/cyclin A; [1]): <0.1
4 | 117 (H-HSKRRLI[dPsa]-OH) [compound 117] | – | – | – | Relative activity Kinase Inhibition (CDK2/cyclin A; [1]): <0.1
5 | 122 (H-AA[Abu]RRLI[Phe(4-F)]-NH2; SMILES CC[C@H](NC(=O)[C@H](C)NC(=O)[C@H](C)N)C(=O)N[C@@H](CCCNC(=N)N)C(=O)N[C@@H](CCCNC(=N)N)C(=O)N[C@@H](CC(C)C)C(=O)N[C@H](C(=O)N[C@@H](Cc1ccc(F)cc1)C(N)=O)[C@@H](C)CC) [compound 122] | 60 | – | – | –
6 | 123 (H-AAKRRLI[Phe(4-F)]-NH2; SMILES CC[C@H](C)[C@H](NC(=O)[C@H](CC(C)C)NC(=O)[C@H](CCCNC(=N)N)NC(=O)[C@H](CCCNC(=N)N)NC(=O)[C@H](CCCCN)NC(=O)[C@H](C)NC(=O)[C@H](C)N)C(=O)N[C@@H](Cc1ccc(F)cc1)C(N)=O) [compound 123] | 80 | – | – | –
7 | 124 (H-AAKR[Cit]LI[Phe(4-F)]-NH2; SMILES CC[C@H](C)[C@H](NC(=O)[C@H](CC(C)C)NC(=O)[C@H](CCCNC(N)=O)NC(=O)[C@H](CCCNC(=N)N)NC(=O)[C@H](CCCCN)NC(=O)[C@H](C)NC(=O)[C@H](C)N)C(=O)N[C@@H](Cc1ccc(F)cc1)C(N)=O) [compound 124] | 10 | – | – | –
8 | 125 (H-AAKRRLA[Phe(4-F)]-NH2; SMILES CC(C)C[C@H](NC(=O)[C@H](CCCNC(=N)N)NC(=O)[C@H](CCCNC(=N)N)NC(=O)[C@H](CCCCN)NC(=O)[C@H](C)NC(=O)[C@H](C)N)C(=O)N[C@@H](C)C(=O)N[C@@H](Cc1ccc(F)cc1)C(N)=O) [compound 125] | 20 | – | – | –
9 | 126 (H-AA[Abu]RSLI[Phe(4-F)]-NH2; SMILES CC[C@H](NC(=O)[C@H](C)NC(=O)[C@H](C)N)C(=O)N[C@@H](CCCNC(=N)N)C(=O)N[C@@H](CO)C(=O)N[C@@H](CC(C)C)C(=O)N[C@H](C(=O)N[C@@H](Cc1ccc(F)cc1)C(N)=O)[C@@H](C)CC) [compound 126] | 14 | – | – | –
10 | 127 (H-AAKQRLI[Phe(4-F)]-NH2; SMILES CC[C@H](C)[C@H](NC(=O)[C@H](CC(C)C)NC(=O)[C@H](CCCNC(=N)N)NC(=O)[C@H](CCC(N)=O)NC(=O)[C@H](CCCCN)NC(=O)[C@H](C)NC(=O)[C@H](C)N)C(=O)N[C@@H](Cc1ccc(F)cc1)C(N)=O) [compound 127] | 4 | – | – | –
11 | AFYHSKRRLIFS | – | 70 | 11 ± 2 | Kinase Inhibition Cyclin D1/CDK4 % Inhibition (CDK4/Cyclin D1): 72%; Kinase Inhibition Cyclin D1/CDK4 IC30 (CDK4/Cyclin D1): 22 ± 4 µM
12 | DAYHSKRRLIFS | – | 85 | 5.9 ± 0.4 | Kinase Inhibition Cyclin D1/CDK4 % Inhibition (CDK4/Cyclin D1): 76%; Kinase Inhibition Cyclin D1/CDK4 IC30 (CDK4/Cyclin D1): 37 ± 6 µM
13 | DFAHSKRRLIFS | – | 80 | 5.3 ± 0.6 | Kinase Inhibition Cyclin D1/CDK4 % Inhibition (CDK4/Cyclin D1): 56%; Kinase Inhibition Cyclin D1/CDK4 IC30 (CDK4/Cyclin D1): 121 ± 31 µM
14 | DFYASKRRLIFS | – | 80 | 5.1 ± 0.5 | Kinase Inhibition Cyclin D1/CDK4 % Inhibition (CDK4/Cyclin D1): 60%; Kinase Inhibition Cyclin D1/CDK4 IC30 (CDK4/Cyclin D1): 73 ± 42 µM
15 | DFYHSARRLIFS | – | 80 | 12.9 ± 2.4 | Kinase Inhibition Cyclin D1/CDK4 % Inhibition (CDK4/Cyclin D1): 50%; Kinase Inhibition Cyclin D1/CDK4 IC30 (CDK4/Cyclin D1): 200 µM
16 | DFYHSKR | – | 50 | 200 | –
17 | H-His-Ala-Lys-Arg-Aib-Leu-Ile Phe-NH2 | – | – | – | Relative activity Kinase Inhibition (CDK2/cyclin A; [3]): <0.1
18 | H-His-Ala-Lys-Arg-Arg-Leu-Ile-[L-Psa]-OH (H-HAKRRLI[Psa]-OH) | – | – | – | inhibition of CDK2/cyclin A (pRb phosphorylation), in words (CDK2/cyclin A; b370: CDK2/cyclin A inhibition and/or cyclin A binding): particularly potent
19 | H-His-Ala-Lys-Arg-Sar-Leu-Ile Phe-NH2 | – | – | – | Relative activity Kinase Inhibition (CDK2/cyclin A; [3]): <0.1
20 | HSKRRL | – | 45 | >200 | –
